In the supplement of paper PMC10307832:

Assays:
Experiment in all cases: relative viability (nuclei count vs DMSO), 5 days (fraction); higher = more cells survive
[1] = compound: CC1=C(C(=NN1)C)CC2=C(C3=C(S2)N(C(=O)N(C3=O)C)CC(C)C)C(=O)N4C[C@@H](CO4)O + CS(=O)(=O)CCNCc1ccc(-c2ccc3ncnc(Nc4ccc(OCc5cccc(F)c5)c(Cl)c4)c3c2)o1 [Lapatinib] (partner 2 µM)
Summary of the method: (§1)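 For relative viability, nuclei counts in treated wells were divided by those in vehicle wells. Lung cancer cell lines had been pin-tool dosed in 1536-well plates the day after seeding and cultured for 5 days, then fixed and stained in one step (final 0.05% Triton X-100, 1% formaldehyde, 1 ug/ml Hoechst) and imaged at 4×. Doses were one drug alone or a fixed anchor-drug dose plus five library-drug doses (not always all listed) in √10 steps, and values are duplicate-plate medians.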

[2] = compound: CC1=C(C(=NN1)C)CC2=C(C3=C(S2)N(C(=O)N(C3=O)C)CC(C)C)C(=O)N4C[C@@H](CO4)O + CS(=O)(=O)N1CCN(Cc2cc3nc(-c4cccc5[nH]ncc45)nc(N4CCOCC4)c3s2)CC1 [Pictilisib] (partner 1 µM)
Summary of the method: as §1

[3] = compound: Cc1ccccc1C(C(=O)NC1CCCCC1)N(C(=O)Cn1ccnc1C)c1cccc(F)c1 [IDH-C35] + CS(=O)(=O)CCNCc1ccc(-c2ccc3ncnc(Nc4ccc(OCc5cccc(F)c5)c(Cl)c4)c3c2)o1 [Lapatinib] (partner 2 µM)
Summary of the method: as §1

[4] = compound: Cc1ccccc1C(C(=O)NC1CCCCC1)N(C(=O)Cn1ccnc1C)c1cccc(F)c1 [IDH-C35] + Cc1nc(NC(=O)N2CCC[C@H]2C(N)=O)sc1-c1ccnc(C(C)(C)C(F)(F)F)c1 [Alpelisib] (partner 2 µM)
Summary of the method: as §1

| Cell Line | relative viability ([1]; first compound 0.0025 µM) | relative viability ([1]; first compound 0.007906 µM) | relative viability ([1]; first compound 0.025 µM) | relative viability ([1]; first compound 0.07906 µM) | relative viability ([1]; first compound 0.25 µM) | relative viability ([2]; first compound 0.0025 µM) | relative viability ([2]; first compound 0.007906 µM) | relative viability ([2]; first compound 0.025 µM) | relative viability ([2]; first compound 0.07906 µM) | relative viability ([2]; first compound 0.25 µM) | relative viability ([3]; first compound 0.08 µM) | relative viability ([3]; first compound 0.253 µM) | relative viability ([3]; first compound 0.8 µM) | relative viability ([3]; first compound 2.53 µM) | relative viability ([3]; first compound 8 µM) | relative viability ([4]; first compound 0.08 µM) | relative viability ([4]; first compound 0.253 µM) | relative viability ([4]; first compound 0.8 µM) | relative viability ([4]; first compound 2.53 µM) | relative viability ([4]; first compound 8 µM) |
| --- | --- | --- | --- | --- | --- | --- | --- | --- | --- | --- | --- | --- | --- | --- | --- | --- | --- | --- | --- | --- |
| COR-L 105 | 0.36 | 0.422 | 0.381 | 0.302 | 0.369 | 0.406 | 0.445 | 0.376 | 0.398 | 0.356 | 0.33 | 0.359 | 0.337 | 0.34 | 0.369 | 1.04 | 1.08 | 1.13 | 0.882 | 0.99 |
| NCI-H1975 | 0.792 | 0.942 | 0.916 | 0.995 | 1.08 | 0.324 | 0.298 | 0.293 | 0.301 | 0.315 | 0.833 | 0.86 | 0.85 | 0.974 | 0.928 | 0.55 | 0.636 | 0.712 | 0.658 | 0.654 |
| Calu-6 | 1.13 | 1.06 | 0.947 | 1.04 | 1.19 | 1.01 | 0.939 | 0.887 | 0.949 | 0.981 | 1.04 | 1.04 | 1.03 | 1.06 | 1.01 | 1 | 0.973 | 0.955 | 0.97 | 1.05 |
| NCI-H1993 | 0.856 | 0.809 | 0.744 | 0.745 | 0.947 | 0.866 | 0.888 | 0.89 | 0.728 | 0.756 | 0.858 | 0.763 | 0.79 | 0.795 | 0.92 | 0.667 | 0.732 | 0.63 | 0.768 | 0.711 |
| RERF-LC-KJ | 0.899 | 0.928 | 0.86 | 0.885 | 0.941 | 0.623 | 0.527 | 0.557 | 0.518 | 0.587 | 0.939 | 0.856 | 0.91 | 0.802 | 0.773 | 0.824 | 0.827 | 0.853 | 0.73 | 0.886 |
| NCI-H23 | 1.21 | 1.26 | 0.931 | 1.27 | 1.28 | 0.528 | 0.489 | 0.523 | 0.494 | 0.651 | 0.988 | 1.15 | 1.23 | 1.06 | 0.97 | 0.622 | 0.591 | 0.648 | 0.73 | 0.834 |
| HCC-366 | 1.02 | 1.03 | 1.06 | 1.07 | 1.15 | 0.139 | 0.141 | 0.25 | 0.193 | 0.212 | 1.12 | 1.03 | 1.04 | 1.08 | 1.12 | 0.476 | 0.311 | 0.387 | 0.403 | 0.352 |
| EMC-BAC-2 | 0.604 | 0.987 | 0.907 | 0.861 | 0.957 | 0.512 | 0.573 | 0.521 | 0.505 | 0.594 | 0.916 | 0.86 | 0.868 | 0.895 | 0.955 | 0.79 | 0.665 | 0.739 | 0.756 | 0.709 |
